Test results published in ChEMBL document CHEMBL1828546, “Aminothiophenedicarboxamides and dicyanothiopheneacetamides as effective synthetic molluscicides against Indoplanorbis exustus snail” (Eur J Med Chem, 2011).
Calls of active or inactive are those of the source. No cut-off for these calls is given here.

How the values were obtained:
Assay type in all cases: functional
Indoplanorbis exustus [1] = assay: Molluscicidal activity against Indoplanorbis exustus assessed as mortality at 0.02 to 40 ppm after 24 hrs
Indoplanorbis exustus [2] = assay: Molluscicidal activity against Indoplanorbis exustus assessed as mortality at 30 ppm after 24 hrs
Indoplanorbis exustus [3] = assay: Molluscicidal activity against Indoplanorbis exustus after 24 hrs
Indoplanorbis exustus [4] = assay: Molluscicidal activity against Indoplanorbis exustus assessed as mortality at 20 ppm after 24 hrs
Indoplanorbis exustus [5] = assay: Molluscicidal activity against Indoplanorbis exustus assessed as mortality at 10 ppm after 24 hrs
Indoplanorbis exustus [6] = assay: Molluscicidal activity against Indoplanorbis exustus assessed as mortality at 40 ppm after 24 hrs
Indoplanorbis exustus [7] = assay: Molluscicidal activity against Indoplanorbis exustus assessed as mortality at 0.06 ppm after 24 hrs
Indoplanorbis exustus [8] = assay: Molluscicidal activity against Indoplanorbis exustus assessed as mortality at 0.08 ppm after 24 hrs
Indoplanorbis exustus [9] = assay: Molluscicidal activity against Indoplanorbis exustus assessed as mortality at 0.02 ppm after 24 hrs
Indoplanorbis exustus [10] = assay: Molluscicidal activity against Indoplanorbis exustus assessed as mortality at 0.04 ppm after 24 hrs

Structure (SMILES): N#Cc1sc(N)c(C#N)c1-c1cc(C(F)(F)F)cc(C(F)(F)F)c1
- Activity (Indoplanorbis exustus [1]): inactive

Structure (SMILES): NC(=O)c1sc(N)c(C(N)=O)c1-c1ccc(F)cc1F
- Activity (Indoplanorbis exustus [2]): 60%
- LC50 (Indoplanorbis exustus [3]): 0.607 ppm
- Activity (Indoplanorbis exustus [4]): 40%
- Activity (Indoplanorbis exustus [5]): 20%
- Activity (Indoplanorbis exustus [6]): 70%

Structure (SMILES): Cc1nc2sc(C(N)=O)c(-c3ccc(Cl)cc3)c2c(=O)[nH]1
- Activity (Indoplanorbis exustus [1]): inactive

Structure (SMILES): CC(=O)Nc1sc(C#N)c(-c2cc(C(F)(F)F)cc(C(F)(F)F)c2)c1C#N
- LC50 (Indoplanorbis exustus [3]): 0.74 ppm
- Activity (Indoplanorbis exustus [7]): 50%
- Activity (Indoplanorbis exustus [8]): 70%
- Activity (Indoplanorbis exustus [9]): 20%
- Activity (Indoplanorbis exustus [10]): 30%

Structure (SMILES): NC(=O)c1sc(N)c(C(N)=O)c1-c1ccc(Cl)cc1
- Activity (Indoplanorbis exustus [2]): 30%
- LC50 (Indoplanorbis exustus [3]): 0.604 ppm
- Activity (Indoplanorbis exustus [4]): 20%
- Activity (Indoplanorbis exustus [5]): 0%
- Activity (Indoplanorbis exustus [6]): 50%

Structure (SMILES): CC(=O)Nc1sc(C#N)c(-c2ccc(F)cc2F)c1C#N
- LC50 (Indoplanorbis exustus [3]): 0.763 ppm
- Activity (Indoplanorbis exustus [7]): 50%
- Activity (Indoplanorbis exustus [8]): 60%
- Activity (Indoplanorbis exustus [9]): 20%
- Activity (Indoplanorbis exustus [10]): 40%

Structure (SMILES): N#Cc1sc(N)c(C#N)c1-c1ccc(Cl)cc1
- Activity (Indoplanorbis exustus [1]): inactive

Structure (SMILES): CC(=O)Nc1sc(C#N)c(-c2ccc(Cl)cc2)c1C#N
- LC50 (Indoplanorbis exustus [3]): 0.651 ppm
- Activity (Indoplanorbis exustus [7]): 60%
- Activity (Indoplanorbis exustus [8]): 80%
- Activity (Indoplanorbis exustus [9]): 20%
- Activity (Indoplanorbis exustus [10]): 40%

Structure (SMILES): NC(=O)c1sc2nc(CCl)[nH]c(=O)c2c1-c1ccc(Cl)cc1
- Activity (Indoplanorbis exustus [1]): inactive

Structure (SMILES): NC(=O)c1sc(N)c(C(N)=O)c1-c1cc(C(F)(F)F)cc(C(F)(F)F)c1
- Activity (Indoplanorbis exustus [2]): 60%
- LC50 (Indoplanorbis exustus [3]): 0.751 ppm
- Activity (Indoplanorbis exustus [4]): 30%
- Activity (Indoplanorbis exustus [5]): 20%
- Activity (Indoplanorbis exustus [6]): 60%

Structure (SMILES): N#Cc1sc(N)c(C#N)c1-c1ccc(F)cc1F
- Activity (Indoplanorbis exustus [1]): inactive
